Columns and labels:
[1] = system: ^14C-cholesterol absorption; test: In vivo testing of cholesterol absorption inhibitors (A); conditions: procedure A, C57BL/6 female mice
Procedure: In Vivo Testing of Cholesterol Absorption Inhibitors (A)
C57BL/6 female mice were maintained on regular chow diet and housed in individual cages to collect faeces. Mice were fasted for 3 hours and then gavaged with vehicle or compound. Half an hour later the mice were gavaged with radiolabelled cholesterol. Six hours after the ^14C-cholesterol gavage blood samples were taken via the tail and plasma prepared to determine how much cholesterol were absorbed. 24 hours after the gavage of ^14C-cholesterol the mice were bled and plasma were prepared for analysis. Faeces were collected for 24 hours to assess absorption efficiency.

[2] = Absorption in a Caco-2 cells model; type: in vitro ADME; conditions: human
Procedure: Absorption of the compounds of formula (I) was tested in a Caco-2 cells model (Gastroenterology 1989, 96, 736): […]

## CC(C)(C)[C@@H](NC(=O)CNC(=O)COc1ccc([C@@H]2[C@@H](SCC(O)c3ccc(F)cc3)C(=O)N2c2ccc(F)cc2)cc1)C(=O)NCC(=O)O (single isomer, unassigned) [Example 6, N-{[4-((2R,3R)-1-(4-fluorophenyl)-3-{[(2R or S)-2-(4-fluorophenyl)-2-hydroxyethyl]thio}-4-oxoazetidin-2-yl)phenoxy]acetyl}glycyl-3-methyl-D-valylglycine]
[1]; administration of 0.2 mmol/kg by gavage
  inhibition of ^14C-cholesterol absorption: 49%
[2]
  Papp: 0.12 ×10⁻⁶ cm/s

## CC(C)(C)[C@@H](NC(=O)CNC(=O)COc1ccc([C@@H]2[C@@H](SCC(O)c3ccc(F)cc3)C(=O)N2c2ccc(F)cc2)cc1)C(=O)N[C@H](CO)C(=O)O (single isomer, unassigned) [Example 7, N-{[4-((2R,3R)-1-(4-fluorophenyl)-3-{[(2R or S)-2-(4-fluorophenyl)-2-hydroxyethyl]thio}-4-oxoazetidin-2-yl)phenoxy]acetyl}glycyl-3-methyl-D-valyl-D-serine]
[1]; administration of 0.2 μmol/kg by gavage
  inhibition of ^14C-cholesterol absorption: 46%
